According to paper PMC9221509, “Discovery of a Novel Antimicrobial Peptide, Temporin-PKE, from the Skin Secretion of Pelophylax kl. esculentus, and Evaluation of Its Structure-Activity Relationships” (Biomolecules, 2022):
Converted amounts (≈) assume the structure as drawn.

Assays:
Test in all cases: microbe, parasite or virus in culture
[1] = system: K. pneumoniae (ATCC 43816); type: cell-based, Klebsiella pneumoniae; conditions: Klebsiella pneumoniae, ATCC43816, 15 replicates in three independent assays
Description: (§1) The antimicrobial activities of peptides were evaluated against the Gram-positive bacteria, S. aureus (ATCC 6538), methicillin-resistant Staphylococcus aureus (MRSA) (NCTC 12493), Enterococcus faecalis (E. faecalis) (NCTC 12697); the Gram-negative bacteria, E. coli (ATCC CRM 8739), Klebsiella pneumoniae (K. pneumoniae) (ATCC 43816), Pseudomonas aeruginosa (P. aeruginosa) (ATCC CRM 9027); and the yeast, Candida albicans (C. albicans) (ATCC CRM 10231). Clinical isolates of MRSA (B042 V2E1 A), E. coli (ATCC BAA-2340), K. pneumoniae (ATCC BAA-1705), and P. aeruginosa (B004 V2S2 B) were also used to determine their antimicrobial activities. The suspension of microorganisms in the logarithmic growth phase with a specific final density (Gram-negative and Gram-positive bacteria: 5 × 10^5 CFU/mL; yeast: 1 × 10^6 CFU/mL) was incubated with different peptide concentrations from 1 µM to 512 µM at 37 °C for 24 h. PBS was used as the negative control, and norfloxacin and amphotericin B were selected as the positive control for bacteria and yeast, respectively. Since the Norfloxacin had weak activities against P. aeruginosa (B004 V2S2 B) and K. pneumoniae (ATCC BAA 1705), gentamicin was used as the positive control for these two bacterial strains. The absorbance of each well was obtained using a microplate reader (EL808, Biolise BioTek, Winooski, VT, USA) set at 550 nm wavelength. The MIC value was the lowest concentration of a peptide that inhibits visible bacterial growth. Once the MIC values were determined, an aliquot from the bacterial culture exposed to the peptide at or above its MIC value was inoculated on a Mueller Hinton agar (MHA) and was incubated at 37 for 18 h. The MBC value was the lowest concentration of a peptide that kills 99.9% of bacteria.

[2] = system: E. coli (ATCC BAA-2340); type: cell-based, Escherichia coli; conditions: Escherichia coli, ATCCBAA2340, clinical strain, 15 replicates in three independent assays
Description: as §1

[3] = system: E. coli (ATCC CRM 8739); type: cell-based, Escherichia coli; conditions: Escherichia coli, 15 replicates in three independent assays
Description: as §1

[4] = system: S. aureus (ATCC 6538); type: cell-based, Staphylococcus aureus; conditions: Staphylococcus aureus, ATCC6538, 15 replicates in three independent assays
Description: as §1

[5] = system: E. faecalis (NCTC 12697); type: cell-based, Enterococcus faecalis; conditions: Enterococcus faecalis, NCTC12697, 15 replicates in three independent assays
Description: as §1

[6] = system: MRSA (B042 V2E1 A); type: cell-based, methicillin-resistant Staphylococcus aureus; conditions: Staphylococcus aureus, MRSA, clinical strain, 15 replicates in three independent assays
Description: as §1

[7] = system: MRSA (NCTC 12493); type: cell-based, methicillin-resistant Staphylococcus aureus; conditions: Staphylococcus aureus, 15 replicates in three independent assays
Description: as §1

[8] = system: P. aeruginosa (ATCC CRM 9027); type: cell-based, Pseudomonas aeruginosa; conditions: Pseudomonas aeruginosa, 15 replicates in three independent assays
Description: as §1

[9] = system: K. pneumoniae (ATCC BAA-1705); type: cell-based, Klebsiella pneumoniae; conditions: Klebsiella pneumoniae, ATCCBAA1705, clinical strain, 15 replicates in three independent assays
Description: as §1

[10] = system: P. aeruginosa (B004 V2S2 B); type: cell-based, Pseudomonas aeruginosa; conditions: Pseudomonas aeruginosa, clinical strain, 15 replicates in three independent assays
Description: as §1

[11] = system: C. albicans (ATCC CRM 10231); type: cell-based, Candida albicans; conditions: 15 replicates in three independent assays
Description: as §1

[12] = 5 × 10^5 CFU/mL, 37 °C, 24 h, 1-512 µM, absorbance 550 nm, read-out: MIC
[13] = aliquot plated on MHA, 18 h, kills 99.9%, read-out: MBC

CCn1cc(C(=O)O)c(=O)c2cc(F)c(N3CCNCC3)cc21 [Norfloxacin, reference compound]
MIC [1, 12]: 2 µM (≈ 0.639 µg/mL)
MBC [1, 13]: 2 µM (≈ 0.639 µg/mL)
MIC [2, 12]: 2 µM (≈ 0.639 µg/mL)
MBC [2, 13]: 2 µM (≈ 0.639 µg/mL)
MIC [3, 12]: 1 µM (≈ 0.319 µg/mL)
MBC [3, 13]: 1 µM (≈ 0.319 µg/mL)
MIC [4, 12]: 2 µM (≈ 0.639 µg/mL)
MBC ([4]; aliquot plated on MHA, 18 h, kills 99.9% of bacteria, read-out: MBC): 2 µM (≈ 0.639 µg/mL)
MIC [5, 12]: 4 µM (≈ 1.28 µg/mL)
MBC [5, 13]: 4 µM (≈ 1.28 µg/mL)
MIC [6, 12]: 2 µM (≈ 0.639 µg/mL)
MBC [6, 13]: 2 µM (≈ 0.639 µg/mL)
MIC [7, 12]: 2 µM (≈ 0.639 µg/mL)
MBC [7, 13]: 2 µM (≈ 0.639 µg/mL)
MIC [8, 12]: 2 µM (≈ 0.639 µg/mL)
MBC [8, 13]: 2 µM (≈ 0.639 µg/mL)

CNC(C)C1CCC(N)C(OC2C(N)CC(N)C(OC3OCC(C)(O)C(NC)C3O)C2O)O1 (stereo not shown) [Gentamicin, reference compound]
MIC [9, 12]: 2 µM (≈ 0.955 µg/mL)
MBC [9, 13]: 2 µM (≈ 0.955 µg/mL)
MIC [10, 12]: 1 µM (≈ 0.478 µg/mL)
MBC [10, 13]: 1 µM (≈ 0.478 µg/mL)

C[C@@H]1[C@H](O)[C@@H](C)/C=C/C=C/C=C/C=C/C=C/C=C/C=C/[C@H](O[C@@H]2O[C@H](C)[C@@H](O)[C@H](N)[C@@H]2O)C[C@@H]2O[C@](O)(C[C@@H](O)C[C@@H](O)[C@H](O)CC[C@@H](O)C[C@@H](O)CC(=O)O[C@H]1C)C[C@H](O)[C@H]2C(=O)O [amphotericin B, reference compound]
MBC ([11]; Candida albicans, aliquot plated on MHA, 18 h, kills 99.9%, read-out: MBC): 4 µM (≈ 3.7 µg/mL)
MIC ([11]; yeast 1 × 10^6 CFU/mL, 37 °C, 24 h, 1-512 µM, absorbance 550 nm, read-out: MIC): 4 µM (≈ 3.7 µg/mL)
